{"source": "patent US20200390718A1", "about": "“METHODS AND COMPOSITIONS FOR […]-VIRAL TRANSFER VECTOR IMMUNE RESPONSE” (Selecta Biosciences, Inc., priority 2019, published 2020)", "tested_on": "AAV8-SEAP", "assay": "Serum SEAP expression after AAV8-SEAP injections", "format": "in vivo, C57BL/6 female mice", "details": "after the second boost at d140 (FIG. 2A) or d147 (FIG. 2B); AAV8-SEAP 1×10^10 VG", "protocol": "Three groups of C57BL/6 female mice (6 mice each) were injected (r.o.) on days 0 and 56 with 1×10^10 VG of AAV8-SEAP without any nanoparticles (one group) or with ImmTOR™ at 100 μg of rapamycin (synthetic nanocarriers comprising rapamycin, such as those produced in Example 1; two groups). Of the […] two groups, one group was left untreated and one was additionally treated with systemic dexamethasone (i.p., 200 μg in 100 μL per injection) on injection days 0 and 56.\nAt time indicated in FIGS. 1A and 1B (days 14, 35, 49, 63 and 71 or days 13, 19, 33, 48, 62 and 69), mice were bled, serum separated from whole blood, and stored at −20±5° C. until analysis. SEAP levels in serum were measured using an assay kit from ThermoFisher Scientific (Waltham, Mass., USA). Briefly, sera samples and positive controls were diluted in dilution buffer, incubated at 65° C. for 30 min, then cooled to room temperature, and plated into a 96-well format. Then, assay buffer (5 min) and substrate (20 min) were added and the plates were read on a luminometer (477 nm).\nThis has warranted a series of further studies in which four groups of C57BL/6 female mice (6 mice each) were injected (r.o.) on days 0, 56 and 140 or 147 with 1×10^10 VG of AAV8-SEAP without any nanoparticles (two groups) or with ImmTOR™ at 100 μg of rapamycin (synthetic nanocarriers comprising rapamycin; two groups). […]", "data": [{"molecule": "C[C@@H]1C[C@H]2[C@@H]3CCC4=CC(=O)C=C[C@]4(C)[C@@]3(F)[C@@H](O)C[C@]2(C)[C@@]1(O)C(=O)CO", "note": "[dexamethasone, 9α-fluoro-11β,17α,21-trihydroxy-16α-methylpregna-1,4-diene-3,20-dione]", "values": [{"measurement": "benefit in SEAP expression vs. untreated", "value": "10-80%"}]}]}
